By IC50 is commonly meant the concentration needed to halve the response being measured.

Data on 12 molecules can be found in patent US11040981B2, “Pyrrolotriazine compounds and methods of inhibiting TAM kinases” (Syros Pharmaceuticals, Inc., priority 2017, dated 2021).

One assay has as its target T1, FLT3 (Homo sapiens, UniProt P36888).
T1 sequence (P36888 27-993): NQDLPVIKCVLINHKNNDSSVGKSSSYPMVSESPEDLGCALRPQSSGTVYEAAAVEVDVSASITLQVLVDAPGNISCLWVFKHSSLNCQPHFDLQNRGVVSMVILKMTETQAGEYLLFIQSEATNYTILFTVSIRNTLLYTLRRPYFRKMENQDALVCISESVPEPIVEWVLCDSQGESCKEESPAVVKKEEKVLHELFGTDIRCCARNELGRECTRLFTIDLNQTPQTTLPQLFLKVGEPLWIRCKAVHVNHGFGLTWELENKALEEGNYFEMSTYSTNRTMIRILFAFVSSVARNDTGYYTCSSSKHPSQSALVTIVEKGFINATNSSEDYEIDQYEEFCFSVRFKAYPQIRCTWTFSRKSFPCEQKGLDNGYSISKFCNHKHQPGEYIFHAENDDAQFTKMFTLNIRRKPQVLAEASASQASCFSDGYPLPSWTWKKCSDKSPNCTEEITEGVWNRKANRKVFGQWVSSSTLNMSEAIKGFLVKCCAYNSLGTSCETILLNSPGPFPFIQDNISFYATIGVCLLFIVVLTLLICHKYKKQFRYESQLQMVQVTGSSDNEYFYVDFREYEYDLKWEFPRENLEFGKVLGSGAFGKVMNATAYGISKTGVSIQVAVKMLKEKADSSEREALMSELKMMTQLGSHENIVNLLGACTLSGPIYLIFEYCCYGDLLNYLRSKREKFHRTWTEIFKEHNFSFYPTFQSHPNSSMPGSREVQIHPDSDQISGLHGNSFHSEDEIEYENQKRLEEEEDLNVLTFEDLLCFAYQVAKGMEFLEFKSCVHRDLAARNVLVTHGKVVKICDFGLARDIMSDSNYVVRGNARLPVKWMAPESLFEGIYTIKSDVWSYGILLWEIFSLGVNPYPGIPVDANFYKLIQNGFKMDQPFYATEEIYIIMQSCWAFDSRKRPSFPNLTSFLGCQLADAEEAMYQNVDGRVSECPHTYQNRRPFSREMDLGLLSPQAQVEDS
Nature of the assay: TR-FRET kinase activity assay, FLT3. Particulars: ATP at Km, 60 minutes. It counts as biochemical. The gist of the method:
(§1)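 IC50 reflects the drop in TR-FRET between Eu anti-phosphotyrosine antibody and labelled peptide after a 60-minute room-temperature reaction. Buffer was 50 mM HEPES pH 7.5 with 10 mM MgCl2, 1 mM EGTA, 0.01% Brij 35 and 1 mM DTT, with ATP at Km per enzyme and EDTA quench.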
On the technique in general: TR-FRET usually uses a lanthanide donor and a delayed reading to cut background.

The next assay addresses T2, MERTK (Homo sapiens, UniProt Q12866).
T2 sequence (Q12866 21-999): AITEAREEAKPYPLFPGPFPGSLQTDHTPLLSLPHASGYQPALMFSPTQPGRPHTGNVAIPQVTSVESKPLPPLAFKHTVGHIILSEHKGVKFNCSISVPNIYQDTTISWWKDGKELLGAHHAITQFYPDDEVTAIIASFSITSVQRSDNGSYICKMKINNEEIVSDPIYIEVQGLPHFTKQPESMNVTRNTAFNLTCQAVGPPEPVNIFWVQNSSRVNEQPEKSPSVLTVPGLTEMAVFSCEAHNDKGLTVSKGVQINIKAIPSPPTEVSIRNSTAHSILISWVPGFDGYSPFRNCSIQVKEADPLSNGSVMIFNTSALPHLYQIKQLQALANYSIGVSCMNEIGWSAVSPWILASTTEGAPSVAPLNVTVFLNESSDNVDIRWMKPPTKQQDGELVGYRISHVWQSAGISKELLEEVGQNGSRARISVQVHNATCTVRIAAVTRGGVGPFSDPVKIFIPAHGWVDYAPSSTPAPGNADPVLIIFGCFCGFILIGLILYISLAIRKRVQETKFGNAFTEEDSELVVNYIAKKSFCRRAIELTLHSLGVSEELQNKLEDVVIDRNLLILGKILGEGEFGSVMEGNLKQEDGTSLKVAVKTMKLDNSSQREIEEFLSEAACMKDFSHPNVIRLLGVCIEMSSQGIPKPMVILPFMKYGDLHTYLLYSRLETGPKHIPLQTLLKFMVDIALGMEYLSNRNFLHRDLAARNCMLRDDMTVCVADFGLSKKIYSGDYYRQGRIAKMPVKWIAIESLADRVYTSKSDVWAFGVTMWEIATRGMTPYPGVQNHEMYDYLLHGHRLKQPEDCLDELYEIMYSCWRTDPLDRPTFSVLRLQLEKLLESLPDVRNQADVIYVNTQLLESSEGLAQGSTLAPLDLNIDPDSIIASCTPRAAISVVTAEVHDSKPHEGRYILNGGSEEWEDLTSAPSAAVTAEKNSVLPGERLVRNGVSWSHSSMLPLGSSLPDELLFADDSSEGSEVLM
The experiment in a line: TR-FRET kinase activity assay, MERTK. The class given is biochemical. Conditions: for IC50: TR-FRET activity assay, ATP at Km, 60 minutes, read-out: Mer IC50. The method in brief:
as §1

[1] abbreviates: ratio of Mer to FLT3: FLT3 IC50/Mer IC50.
Setting [2] is: ratio calculated as FLT3 IC50/Mer IC50.

Turning to `CCOC(=O)Cn1cc(-c2cc([C@H]3CC[C@H](O)CC3)n3nc(N[C@@H](C)COC)ncc23)cn1` [Compound 159], the IC50 on FLT3 is 100 to 1000 nM; on MERTK it was ≤ 100 nM. For the same molecule, the “FLT3/Mer ratio (FLT3 IC50/Mer IC50)” value at MERTK (setting [1]) was “+++ (“+++” represents a ratio of >100)”.

Take `COCC(C)Nc1ncc2c(-c3ccc(C(C)N4CCCC4)cc3)cc(C3CCC(O)CC3)n2n1` (stereo not drawn) [Compound 164]: the half-maximal inhibitory concentration (IC50) on FLT3 and at MERTK was ≤ 100 nM each time. At MERTK (setting [1]), the “FLT3/Mer ratio (FLT3 IC50/Mer IC50)” value is “++ (“++” represents a ratio of between 10 and 100)”.

For the molecule `COCC(C)Nc1ncc2c(-c3ccc(C4(C(=O)N5CCS(=O)(=O)CC5)CC4)cc3)cc(C3CCC(O)CC3)n2n1` (stereo not drawn) [Compound 172], the IC50 against FLT3 and at MERTK was ≤ 100 nM each time. The “FLT3/Mer ratio (FLT3 IC50/Mer IC50)” value at MERTK (setting [1]) is “++ (“++” represents a ratio of between 10 and 100)”.

For the molecule `COC[C@H](C)N(C)c1ncc2c(-c3ccnc(C)c3)cc([C@H]3CC[C@H](OC)CC3)n2n1` [Compound 176, 7-((trans)-4-methoxycyclohexyl)-N-((S)-1-methoxypropan-2-yl)-N-methyl-5-(2-methylpyridin-4-yl)pyrrolo[2,1-f][1,2,4]triazin-2-amine], the IC50 against FLT3 and on MERTK was 1000 to 10000 nM in each case. Moreover, the “FLT3/Mer ratio (FLT3 IC50/Mer IC50)” value at MERTK (setting [1]) was “+ (“+” represents a ratio of >2.0 and <10)”.

With `CC(CC#N)Nc1ncc2c(-c3ccc(CN4CCN(C)CC4)cc3)cc(C3CCC(O)CC3)n2n1` (stereo not drawn) [Compound 145], the IC50 against FLT3 and on MERTK was ≤ 100 nM throughout. Moreover, the “FLT3/Mer ratio (FLT3 IC50/Mer IC50)” value on MERTK (setting [1]) is “++ (“++” represents a ratio of between 10 and 100)”.

Turning to `CCC1(O)CCC(c2cc(-c3cnn(C4COC4)c3)c3cnc(NC(C)COC)nn23)CC1` (stereo not drawn) [Compound 615], the results for the IC50 at FLT3 and on MERTK were 100 to 1000 nM and ≤ 100 nM, respectively. In addition, on MERTK (setting [2]), the “FLT3/Mer ratio (FLT3 IC50/Mer IC50)” value is “+++ (“+++” represents a ratio of >100)”.

For `COC[C@H](C)Nc1ncc2c(-c3ccc(CN4CCN(C)CC4)cc3)cc([C@H]3CC[C@@H](O)CC3)n2n1` [Compound 155], the values for the half-inhibitory concentration (IC50) on FLT3 and on MERTK were 100 to 1000 nM and ≤ 100 nM, respectively. Further, the “FLT3/Mer ratio (FLT3 IC50/Mer IC50)” value at MERTK (setting [1]) was “++ (“++” represents a ratio of between 10 and 100)”.

Regarding `C[C@@H](CC(F)(F)F)Nc1ncc2c(-c3cnn(C(C)(C)C(=O)N4CC5(COC5)C4)c3)cc([C@H]3CC[C@H](O)CC3)n2n1` [Compound 608], the half-inhibitory concentration (IC50) against FLT3 and on MERTK was ≤ 100 nM in each case. Besides, at MERTK (setting [2]), the “FLT3/Mer ratio (FLT3 IC50/Mer IC50)” value was “++ (“++” represents a ratio of between 10 and 100)”.

Consider `COC[C@H](C)Nc1ncc2c(-c3cnn(CC(=O)NS(C)(=O)=O)c3)cc([C@H]3CC[C@H](O)CC3)n2n1` [Compound 174], for which the IC50 on FLT3 is 1000 to 10000 nM; on MERTK it was ≤ 100 nM. The “FLT3/Mer ratio (FLT3 IC50/Mer IC50)” value at MERTK (setting [1]) is recorded as “+++ (“+++” represents a ratio of >100)”.

For `CCCCC[C@H](C)Nc1ncc2c(-c3ccc(S(=O)(=O)N4CCOCC4)cc3)cc([C@H]3CC[C@H](O)CC3)n2n1` [Compound 102, (1S,4r)-4-(2-((S)-heptan-2-ylamino)-5-(4-(morpholinosulfonyl)phenyl)pyrrolo[2,1-f][1,2,4]triazin-7-yl)cyclohexanol], the IC50 against FLT3 is 100 to 1000 nM; on MERTK, ≤ 100 nM. Further, on MERTK (setting [1]), the “FLT3/Mer ratio (FLT3 IC50/Mer IC50)” value was “++ (“++” represents a ratio of between 10 and 100)”.

For `C[C@@H](COC(F)F)Nc1ncc2c(-c3cnn(C(C)(C)C(=O)N4CC5(COC5)C4)c3)cc([C@H]3CC[C@H](O)CC3)n2n1` [Compound 613], the IC50 at FLT3 and at MERTK was ≤ 100 nM in each case. Also, at MERTK (setting [2]), the “FLT3/Mer ratio (FLT3 IC50/Mer IC50)” value was “+++ (“+++” represents a ratio of >100)”.

`COC[C@H](C)Nc1ncc2c(-c3ccnc(C)c3)cc([C@H]3CC[C@@H](O)CC3)n2n1` [Compound 183]: the IC50 was 1000 to 10000 nM against FLT3 and ≤ 100 nM on MERTK. In addition, at MERTK (setting [1]), the “FLT3/Mer ratio (FLT3 IC50/Mer IC50)” value is reported as “+++ (“+++” represents a ratio of >100)”.
